Drawing on PubChem BioAssay AID463203 (Broad Institute, 2010), this text covers AC50 for 88 compounds.

The structures appear in SMILES notation. Calls of active or inactive are those of the source.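 Rule for the calls: active = more than half of replicate measurements showing over 20% loss of kinase signal relative to plate controls; inconclusive = some but at most half of replicates over 20% loss; inactive = no replicate over 20% signal loss.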

The target of this experiment is Glycogen synthase kinase-3 alpha (Homo sapiens) (UniProt P49840). As to the kind of experiment: concentration-response blocking of human GSK3A – biochemical, luminescence, cell-free homogeneous, retest, dose response (AID 463203). Conditions: GSK-3 alpha enzyme, ADP-Glo luminescence, 60 min. In general terms: ADP-Glo turns the ADP formed in a reaction into a luminescent signal.
Sequence of Glycogen synthase kinase-3 alpha (Homo sapiens) (P49840 whole entry, looked up): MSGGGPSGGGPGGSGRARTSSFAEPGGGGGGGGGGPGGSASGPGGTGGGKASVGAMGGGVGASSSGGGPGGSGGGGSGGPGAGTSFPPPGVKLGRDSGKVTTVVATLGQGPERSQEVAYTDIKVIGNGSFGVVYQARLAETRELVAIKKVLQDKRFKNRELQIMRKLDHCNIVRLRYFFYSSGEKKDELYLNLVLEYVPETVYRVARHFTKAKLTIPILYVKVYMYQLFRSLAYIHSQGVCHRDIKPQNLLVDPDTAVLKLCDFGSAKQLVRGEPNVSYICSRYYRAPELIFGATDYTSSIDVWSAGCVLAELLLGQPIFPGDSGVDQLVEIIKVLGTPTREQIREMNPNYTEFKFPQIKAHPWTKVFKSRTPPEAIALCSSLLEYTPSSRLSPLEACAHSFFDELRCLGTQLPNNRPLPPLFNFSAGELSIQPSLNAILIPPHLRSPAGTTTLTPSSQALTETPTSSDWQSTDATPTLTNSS

Turning to `Cc1cnn(-c2cc(N/N=C/c3ccccc3)ncn2)c1`, the AC50 – broadly, the concentration giving half of the maximal activity seen – was > 30 µM (inactive).

With `Cc1ccc(-n2cnc(N)c2C(=O)c2cccc([N+](=O)[O-])c2)cc1`, the AC50 is 10.8 µM.

For `O=C(O)c1cc(-c2ccc(/C=N/N3C(=O)C4C5C=CC(C6CC56)C4C3=O)o2)ccc1Cl` (stereo not drawn), the AC50 is > 30 µM (inactive).

As to `CCOCCCN(C(=O)c1snc(C(N)=O)c1N)C(C(=O)NC1CCCC1)c1ccc(O)cc1` (stereo not drawn), the AC50 was 27 µM.

As to `CC(C)OC(=O)CSc1nc(N)c(C#N)c(-c2ccco2)c1C#N`, the AC50 was > 30 µM (inactive).

In the case of `COc1ccc(OC)c(C2CC(=O)N3CN(c4cccc(Cl)c4)CSC3=C2C#N)c1` (stereo not drawn), the AC50 was > 30 µM (inactive).

Regarding `COc1cccc(NC(=O)c2cnc[nH]2)c1`, the AC50 is > 30 µM (inactive).

For `Nc1nc(NCCOCCO)nc(N2CCCCCC2)c1[N+](=O)[O-]`, the AC50 is 26.4 µM.

On to `COCCn1c(SCC(=O)Nc2cc(C)on2)nc2ccccc21`, for which the AC50 is > 30 µM (inactive).

In the case of `COc1ccc(S(=O)(=O)N[C@H](C(=O)O)C(C)C)cc1`, the AC50 was > 30 µM (inactive).

As for `Cc1nc(SCC(=O)NCC2CCCO2)c2c3c(sc2n1)CCC3` (stereo not drawn), the AC50 is > 30 µM (inactive).

Consider `CC1=C(C(=O)OCc2ccccc2)C(c2cccc(Br)c2)NC(=O)N1` (stereo not drawn), for which the AC50 was 28.7 µM.

As for `COc1ccccc1OC(C)C(=O)N1CCC(Cc2ccccc2)CC1` (stereo not drawn), the AC50 was > 30 µM (inactive).

Consider `CCOC(=O)c1cnc2ccc(OCC)cc2c1N1CCN(c2ccccc2OC)CC1`, for which the half-maximal activity concentration (AC50) was 3.95 µM.

Consider `Cc1cccc(C(=O)Nc2cccc(-c3cnc4ccccc4n3)c2)c1`, for which the AC50 is > 30 µM (inactive).

`CCOC(=O)c1cc(-c2ccc(C)cc2)n(CCC(=O)NC(C)CC)c1C` (stereo not drawn): the AC50 was > 30 µM (inactive).

Take `Nc1nonc1-n1nnc(C(=O)N/N=C/c2ccco2)c1CSc1ccccc1`: the AC50 was > 30 µM (inactive).

On to `O=C(CNC(=S)N(Cc1ccccc1)Cc1cccnc1)NC1CCCCC1`, for which the AC50 is > 30 µM (inactive).

For the compound `N#Cc1ccccc1Cn1cc(/C=N/Nc2ccc([N+](=O)[O-])cn2)c2ccccc21`, the AC50 is > 30 µM (inactive).

`CCOC(=O)CCc1c(C)c2ccc(O)cc2oc1=O`: the AC50 was > 30 µM (inactive).

In the case of `COCCCNc1nc(N)c([N+](=O)[O-])c(N2CCCCCC2)n1`, the half-maximal activity concentration (AC50) was 9.97 µM.

As for `Cc1ccc(C)c(/C=N/Nc2ccccn2)c1`, the AC50 was > 30 µM (inactive).

For the compound `COc1ccc(C(=O)c2sc(NC(C)C)nc2N)cc1OC`, the AC50 is 0.234 µM.

Consider `Cc1sc(NC(=O)CSc2nc(N)cc(N)n2)c(C#N)c1C`, for which the AC50 was > 30 µM (inactive).

`Nc1nonc1-n1nnc(C(=O)N/N=C/c2cccc(Cl)c2)c1-c1cccs1`: the AC50 was 0.614 µM.

In the case of `CC(OC(=O)c1cccc(N2C(=O)c3ccccc3C2=O)c1)C(=O)Nc1ccc(N(C)C)cc1` (stereo not drawn), the AC50 was > 30 µM (inactive).

On to `CCCCCCCCOC(=O)C1=C(C)Nc2nnnn2C1c1cccs1` (stereo not drawn), for which the AC50 was > 30 µM (inactive).

In the case of `COCCCNC(=O)C(=O)NC1CCCCC1C` (stereo not drawn), the AC50 was > 30 µM (inactive).

In the case of `Cc1c(C)n(CCCN(C)C)c2ncnc(NC3CCCCC3)c12`, the AC50 was > 30 µM (inactive).

Consider `COc1cc(/C=c2\s/c(=C\C(=O)C(C)(C)C)[nH]c2=O)cc(OC)c1OC`, for which the AC50 is > 30 µM (inactive).

Turning to `O=c1[nH]c(=O)n(Cc2ccc(F)cc2)c(O)c1C=NCCCn1ccnc1`, the AC50 is > 30 µM (inactive).

As to `COC(=O)c1sccc1NC(=O)c1ccccc1`, the AC50 was > 30 µM (inactive).

As for `CC[n+]1c(/C=C/C=C/N(C(C)=O)c2ccccc2)sc2ccccc21`, the AC50 was > 30 µM (inactive).

On to `O=C(Nc1ccc(C(=O)NC2CCCCC2)cc1)c1cccnc1`, for which the AC50 was > 30 µM (inactive).

On to `CCOc1cc(/C=N/O)ccc1OCc1ccc([N+](=O)[O-])cc1`, for which the AC50 is > 30 µM (inactive).

Consider `NC(=O)c1cc([N+](=O)[O-])ccc1NCc1cccc(N)c1`, for which the concentration at half-maximal activity (AC50) was 15.6 µM.

On to `O=[N+]([O-])c1cccnc1N1CCCNCC1`, for which the AC50 is > 30 µM (inactive).

With `CCCCn1c(O)c(C=NCCCn2ccnc2)c(=O)[nH]c1=O`, the AC50 is 5.81 µM.

As for `NC1=NC(=O)/C(=C\c2ccc(-c3ccc(Cl)cc3)o2)S1`, the AC50 is 1.4 µM.

On to `COc1ccc(C(=O)Nc2nncs2)cc1S(=O)(=O)N1CC(c2ccccc2)CC1=O` (stereo not drawn), for which the AC50 is > 30 µM (inactive).

In the case of `Cc1cc(=O)[nH]c(SCC(=O)O)c1C#N`, the AC50 was > 30 µM (inactive).

Turning to `COc1cccc(NC(=O)Nc2cc(Cl)ccc2C)c1`, the AC50 is > 30 µM (inactive).

As for `C#CCOCCOCCOCCNc1nc(N2CCN(C(=O)CCCCCCCCCCNC(=O)[C@H](CCCCN)n3cc(C)nn3)CC2)nc(N2CCN(C(=O)CCCCCCCCCCNC(=O)[C@@H]([C@H](C)CC)n3cc(CCCCCN)nn3)CC2)n1`, the AC50 is > 30 µM (inactive).

Turning to `CCCCCCCCCCCCCCCC[N+](C)(C)CC`, the AC50 was > 30 µM (inactive).

On to `CCOC(=O)c1nc(NCc2cccnc2)c2ccccc2n1`, for which the AC50 is > 30 µM (inactive).

Take `Cc1cccc(OCC(=O)N2CCN(c3nnc(-c4ccccc4)c4ccccc34)CC2)c1`: the AC50 is > 30 µM (inactive).

For `C/C(=N\NC(=O)c1nnn(-c2nonc2N)c1-c1cccs1)c1ccc(O)cc1`, the AC50 was 1.17 µM.

With `COc1ccccc1Nc1nc(C)cc(C)n1`, the AC50 was > 30 µM (inactive).

Take `CCOC(=O)c1ccc(N2CSC3=C(C#N)C(c4cccs4)CC(=O)N3C2)cc1` (stereo not drawn): the AC50 is > 30 µM (inactive).

On to `c1cncc(-c2nc(NCC3COc4ccccc4O3)c3ccccc3n2)c1` (stereo not drawn), for which the concentration at half-maximal activity (AC50) was 22.9 µM.

As to `O=C(CSc1nnc(SCc2ccccc2Cl)s1)N/N=C/c1ccc(C(=O)O)cc1`, the AC50 was 5.94 µM.

For `Cc1ccc(C(=O)N2NC(c3ccc(F)cc3)C3C(=O)N(c4ccc(C)cc4)C(=O)C32)cc1` (stereo not drawn), the AC50 was > 30 µM (inactive).

Regarding `COc1ccccc1-n1c(O)c(C=NCc2ccc3c(c2)OCO3)c(=O)[nH]c1=O`, the AC50 was 31.3 µM.

Turning to `C#CCOCCOCCOCCNc1nc(N2CCN(C(=O)CCCCCCCCCCNC(=O)[C@H](CCCCN)n3cc(C)nn3)CC2)nc(N2CCN(C(=O)CCCCCCCCCCNC(=O)[C@H](CCCN=C(N)N)n3cc(C[C@@H](C)CC)nn3)CC2)n1`, the AC50 is > 30 µM (inactive).

For the compound `O=C(Nc1cccc(-c2cnc3ccccc3n2)c1)c1ccco1`, the AC50 is > 30 µM (inactive).

Regarding `Cc1ccc(N(CC(O)CN2CCCCC2)S(=O)(=O)c2ccc(C)cc2)cc1` (stereo not drawn), the AC50 was > 30 µM (inactive).

Take `CCc1ccc(C2CC(c3ccccc3Cl)Nc3nc(N)nn32)cc1` (stereo not drawn): the AC50 was > 30 µM (inactive).

Regarding `CCN(CC)CCCNc1nc(N)c([N+](=O)[O-])c(N2CCCCCC2)n1`, the AC50 was 29.6 µM.

As to `CCOC(=O)N1CCN(C(=O)CSc2ccc3nnc(-c4ccccn4)n3n2)CC1`, the AC50 was > 30 µM (inactive).

Take `CN1/C(=C/C(=O)C2CC2)C(C)(C)c2ccccc21`: the AC50 is > 30 µM (inactive).

In the case of `COCCNc1cc(N)c([N+](=O)[O-])cc1[N+](=O)[O-]`, the AC50 was > 30 µM (inactive).

Consider `CN(c1ccccc1)c1nc(-n2ccnc2)nc(-n2ccnc2)n1`, for which the AC50 is 29.3 µM.

For `COc1ccc2[nH]c(=O)c3c(c2c1)OC(C)(C)C=C3`, the AC50 is 10.4 µM.

As to `COc1ccccc1OCCNC(=O)C1CCN(C(C)=O)CC1`, the AC50 was > 30 µM (inactive).

Take `COc1ccccc1N1CCN(CCC(=O)Nc2cccc(Cl)c2)CC1`: the AC50 was 19.3 µM.

`Cc1nc(Nc2ccc(F)cc2)nc(Nc2ccc(F)cc2)c1[N+](=O)[O-]`: the AC50 is > 30 µM (inactive).

For the compound `COc1ccc(S(=O)(=O)NCc2ccc(C(=O)N3CCC4(CC3)OCCO4)cc2)cc1`, the AC50 is > 30 µM (inactive).

On to `CC1(C)Cc2cccc(C(=O)Nc3ccc(Cl)cc3)c2O1`, for which the AC50 was > 30 µM (inactive).

Consider `O=C(N/N=C/c1cccnc1)c1cccc(S(=O)(=O)N2CCCC2)c1`, for which the AC50 was > 30 µM (inactive).

`Cc1cc(N2CCN(c3ccccc3)CC2)n2cc(-c3ccccc3)nc2n1`: the AC50 is > 30 µM (inactive).

For `CC12CCC(C(=O)Nc3ncc([N+](=O)[O-])s3)(OC1=O)C2(C)C` (stereo not drawn), the AC50 is > 30 µM (inactive).

On to `COC(=O)c1c(NC(=O)CN2C(=O)NC3(CCCCC3C)C2=O)sc2c1CCC2` (stereo not drawn), for which the AC50 was > 30 µM (inactive).

Turning to `CCCC1=C(C(=O)OCC)C(c2ccc(O)cc2)n2ncnc2N1` (stereo not drawn), the AC50 is 11.2 µM.

For the compound `CCC(C)[C@H](NC(=O)NCc1ccc(Cl)cc1)C(=O)OC` (stereo partly drawn), the AC50 was > 30 µM (inactive).

As for `CC1(C)Cc2nc3oc4c(=S)nc[nH]c4c3cc2CO1`, the AC50 is 17 µM.

Turning to `O=C(Nc1ccccc1F)Nc1ccccc1OC(F)F`, the AC50 is > 30 µM (inactive).

For the compound `COc1ccc(-c2cn3cccnc3n2)cc1NC(=O)CC(C)C`, the AC50 is > 30 µM (inactive).

For `COc1cc(C2C(C#N)=C(N)Oc3n[nH]c(-c4cccnc4)c32)ccc1OCC(N)=O` (stereo not drawn), the AC50 is > 30 µM (inactive).

As for `O=C(Oc1cccc([N+](=O)[O-])c1)N1CCCCC1`, the AC50 is > 30 µM (inactive).

`COC(=O)C1(C#N)C(c2ccccc2)C1(C(=O)OC)C(=O)OC` (stereo not drawn): the AC50 is > 30 µM (inactive).

Regarding `COc1ccccc1NC(=O)CSc1nnc(-c2ccc(C)cc2)o1`, the AC50 was > 30 µM (inactive).

Turning to `Cc1ccc(S(=O)(=O)Nc2ccc(O)c3ncccc23)cc1`, the AC50 was > 30 µM (inactive).

On to `O=C(O)c1ccc2c(c1)C(=O)N(CCCCCCCN1C(=O)c3ccc(C(=O)O)cc3C1=O)C2=O`, for which the AC50 was 22.2 µM.

In the case of `CCOC(=O)c1cnc2c(C)cc(Cl)cc2c1N1CCN(C)CC1`, the AC50 was > 30 µM (inactive).

Consider `O=C(CSc1ccccc1)Nc1nnc(C2CC2)s1`, for which the AC50 was > 30 µM (inactive).

Regarding `CCCCc1ccc(NC(=O)N[C@@H](CC(C)C)C(=O)O)cc1`, the AC50 is > 10 µM (inactive).

Regarding `O=C(Nc1ccc(Cl)c([N+](=O)[O-])c1)c1ccc(NCCCN2CCOCC2)c([N+](=O)[O-])c1`, the AC50 was > 30 µM (inactive).

On to `O=C(CSc1ccc2nnc(-c3ccccn3)n2n1)N1CCN(c2ccccc2)CC1`, for which the AC50 was > 30 µM (inactive).
